Measured values: patent US11786532B2, “2-pyridones and methods of use thereof” (ALIGOS THERAPEUTICS, INC., priority 2020, dated 2023)

Target: T1, human thyroid receptor beta ligand-binding domain (THR-beta) (Homo sapiens, UniProt P10828)
T1 sequence (P10828 217-461 limits assumed): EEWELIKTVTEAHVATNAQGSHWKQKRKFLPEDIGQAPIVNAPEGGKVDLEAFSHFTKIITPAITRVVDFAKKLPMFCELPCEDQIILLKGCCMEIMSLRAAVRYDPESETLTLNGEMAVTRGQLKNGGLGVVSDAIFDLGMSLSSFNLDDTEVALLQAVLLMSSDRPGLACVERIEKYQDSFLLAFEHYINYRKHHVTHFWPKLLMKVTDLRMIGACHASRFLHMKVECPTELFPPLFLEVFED
Assay: THR Biochemical Assay (Assay 1): TR-FRET thyroid receptor beta coactivator assay
Conditions: TR-FRET SRC2-2 coactivator recruitment, GST-tagged THR-beta LBD 1 nM, 1 hr at rt; read-out: Assay 1 (EC50, THR-beta agonist activity)
Description: THR Biochemical Assay (Assay 1)
The TR-FRET thyroid receptor beta coactivator assay is to be used. The assay uses a terbium-labeled anti-GST antibody, a glutathione-S-transferase (GST) tagged human thyroid receptor, beta or alpha, ligand-binding domain (LBD), and a fluorescein labeled SRC2-2 coactivator peptide. The antibody interacts with the LBD, where the agonist will also bind, resulting in increased affinity for the SRC2-2 coactivator peptide causing energy transfer of the acceptor fluorophore and a FRET emission shift from 495 to 520 nm. The energy transfer is detected as an increase in the fluorescence emission of the fluorescein acceptor, and a decrease in the fluorescence emission of the terbium donor. The assay is to be performed in a 384-well black plate in a final volume of 20 μL. Serial dilution of various test agonists will be performed in DMSO (1% final DMSO concentration) and added to the test plate. Thyroid receptor beta LBD will usually be added to the plate at a final concentration of 1 nM, followed by the mixture of the fluorescein labeled SRC2-2 coactivator peptide, and the terbium-labeled anti-GST antibody at final concentrations of 200 nM and 2 nM respectively. The assay will often be incubated for 1 hr at rt protected from light. The TR-FRET will then be measured on a Victor multilabel reader (Perkin Elmer) using an excitation wavelength of 340 nm with emission filters of 495 nm and 520 nm. The assay will be quantified by expressing a ratio (520:495) of the intensities, and the resulting activation curves; EC50 values are to be generated using a sigmoidal dose response (variable slope) equation in GraphPad™ Prism 8.0.

EC50: 250 to 1000 nM
Structure (SMILES): CC1CCc2c(Oc3c(Cl)cc(-n4nc(C#N)c(=O)[nH]c4=O)cc3Cl)c[nH]c(=O)c21 (stereo not shown) [Example 34, 2-(3,5-Dichloro-4-((7-methyl-1-oxo-2,5,6,7-tetrahydro-1H-cyclopenta[c]pyridin-4-yl)oxy)phenyl)-3,5-dioxo-2,3,4,5-tetrahydro-1,2,4-triazine-6-carbonitrile]
